Source: US7998940B2, “Aptamers to von Willebrand factor and their use as thrombotic disease therapeutics” (Archemix Corp., priority 2004, dated 2011)
Where two headings read alike, the source gives them in different places. Oligonucleotides are written 5' to 3', each unit as a sugar letter and its base; * is a phosphorothioate linkage, no mark a phosphodiester; rarer units and linkages stand in square brackets, end groups in braces. Plain capitals give the bases only. [invdT] = inverted (3'-3') thymidine; d = 2'-deoxy (DNA); r = 2'-OH (RNA); f = 2'-fluoro

Legend:
[1] = tested on: full length human vWF (SEQ ID NO 7); assay: dot blot KD determination and extent of binding, full length human vWF; conditions: for Kd: read-out: Full length human vWF KD;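 for all read-outs here: dot blot binding of aptamers to full length human vWF across a protein titration, incubated 30 minutes at room temperature in 1x DPBS with BSA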
[2] = tested on: botrocetin induced platelet aggregation; assay: Inhibition of botrocetin induced platelet aggregation (BIPA) in human PRP; type: cell-based; conditions: for ≦200 nM aptamer gives >90% blocking in BIPA at 6 minutes: botrocetin induced platelet aggregation
Method: In platelet rich plasma isolated from fresh human blood, botrocetin induces platelet aggregation via vWF. Platelet aggregate formation can be measured optically as an increase in % light transmittance on a Chronolog Model 490-4D Aggregometer because aggregation of platelets clarifies the plasma. Aptamers of the invention were analyzed for their ability to inhibit botrocetin induced platelet aggregation (“BIPA”) in human blood. An aptamer of the invention was considered to be active if it could prevent aggregate formation for six minutes post botrocetin addition.
In order to determine the activity of aptamers on live human platelets, BIPA assays were done using freshly prepared platelet rich plasma. Blood was obtained from healthy human donors who had not taken NSAIDS for at least five days. […] Collected blood was pooled into 15 mL conical tubes and was spun at 200 g for 20 minutes. The turbid, yellow layer of platelet rich plasma (“PRP”) was withdrawn from the tubes, pooled, and set aside at room temperature. The remaining blood was spun at 2500 g for ten minutes. The clarified layer of plasma, known as platelet poor plasma (“PPP”), was withdrawn and set aside at room temperature. PRP was aliquoted into cuvettes containing stir bars at a volume of 470 uL. A sample of 500 uL of PPP was aliquoted into a cuvette and placed in the PPP reference cell of the platelet aggregometer. Samples of PRP were prewarmed at 37 degrees C. in the platelet aggregometer for 3-5 minutes before being used in BIPA assays. First, the concentration of botrocetin needed to induce platelet aggregation for each individual donor was determined by titration. This concentration of botrocetin was used for the remainder of the experiment. Next, aptamer was assayed by adding titrations of aptamer (zero, 1 nM to 1000 nM) to prewarmed PRP for one minute, followed by addition of botrocetin. With platelet aggregation, an increase in amplitude of light transmission is seen (FIG. 8). The concentration at which platelet aggregation is blocked at 90% or greater after 6 minutes is reported in the final column of Table 26.

[3] = tested on: rabbit vWF A1 domain (SEQ ID NO 6); assay: dot blot KD determination, rabbit vWF A1 domain; type: binding
rabbit vWF A1 domain (SEQ ID NO 6), sequence (as listed by the source): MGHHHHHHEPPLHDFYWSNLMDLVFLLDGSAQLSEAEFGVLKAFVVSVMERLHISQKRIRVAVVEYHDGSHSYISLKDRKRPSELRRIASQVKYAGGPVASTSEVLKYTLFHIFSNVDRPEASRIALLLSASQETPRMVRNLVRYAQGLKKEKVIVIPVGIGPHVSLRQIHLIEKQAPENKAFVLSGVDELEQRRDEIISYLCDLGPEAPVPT
Method: A 12 point protein titration was used in the dot blot assay (300 nM, 100 nM, 30 nM, 10 nM, 3 nM, 1 nM, 300 pM, 100 pM, 30 pM, 10 pM, 3 pM, 0 pM) in 1×DPBS plus 0.1 mg/mL BSA at room temperature for 30 minutes.

[4] = tested on: rabbit vWF domain A1 binding to lyophilized platelets; assay: Rabbit von Willebrand Factor domain A1 platelet binding assay (FACS); type: cell-based
rabbit vWF domain A1 binding to lyophilized platelets, sequence (as listed by the source): as above
Method: Botrocetin induces the binding of the A1 domain of vWF to platelets, as well as the full length protein. It was determined by the inventors that 6-Histidine-tagged rabbit A1 domain vWF purified protein could be induced to bind to human lyophilized platelets with botrocetin. Rabbit A1 binding to platelets is measured with an anti-poly-His antibody followed by incubation with a phycoerythrin conjugated secondary antibody. The degree of binding can be quantified by flow cytometric analysis. The ability of aptamers to block the binding of rabbit A1 to human fixed platelets was correlated with decreased fluorescence signal.
The ability of aptamers of the invention to block rabbit vWF domain A1 binding to lyophilized platelets was also assessed by flow cytometric analysis. Titrations of aptamers (zero, 0.1 nM to 1000 nM) were preincubated briefly with 4 nM of rabbit A1 vWF in FACS buffer (PBS plus 0.5% bovine serum albumin) at room temperature in a volume of 50 uL. Another 50 uL containing 5 uL of lyophilized platelets plus 1 uL of 0.1 U/uL of botrocetin in FACS buffer was added to aptamer/vWF. This reaction was allowed to proceed for 15 minutes at 37 degrees C. after which 200 uL of FACS buffer was added. Platelets were collected by a 6 minute spin at 1470 RCF and the supernatant was discarded. The pellets were resuspended in 100 uL of FACS buffer containing a 1:200 dilution of anti-Penta-HIS-biotin conjugate antibody and were incubated at room temperature for 30 minutes. After the dilution with 200 uL of FACS buffer, the platelets were spun at 1470 RCF for 6 minutes, and the supernatant was discarded. The pellets were resuspended in a 1:100 solution of anti-IgG-PE antibody and were incubated in the dark for 30 minutes at room temperature. The entire 100 uL was diluted into 200 uL of FACS buffer and analyzed immediately by flow cytometric analysis in the FACSCAN. Contaminating debris was eliminated from the analysis by drawing a gate around the population of single and aggregated platelets and collecting data from 10000 events. Median fluorescent intensity (“MedFI”) readings (which are generally equivalent to the MFI readings, described in Example 3a above, for comparative purposes) were quantified for each sample analyzed by flow cytometry. Background MedFI was subtracted from all data points. Percent inhibition was reported by calculating the percent value of binding of […] to platelets in the presence of aptamer at a given concentration relative to binding in the absence of any aptamer (see FIG. 7). IC50 values were determined by fitting the percent inhibition of vWF binding to platelets as a function of aptamer concentration to the equation: % inhibition=% inhibitionmax/(1+IC50/aptamer conc.)

[5] = tested on: full length human vWF binding to lyophilized platelets; assay: Full length human von Willebrand Factor platelet binding assay (FACS); type: cell-based; conditions: for Inhibition of full length hVWF binding in FACS assay, IC50 range: both bounds in nM
Outline: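 Aptamer titrations (0.1–1000 nM) pre-incubated with 5 nM full-length human vWF, then added to lyophilized platelets plus botrocetin for 15 min at 37 °C in PBS/0.5% BSA. Bound vWF detected by anti-vWF then FITC secondary antibody via flow cytometry MFI; % inhibition versus no-aptamer binding fitted for IC50.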

[6] = target: human vWF A1 domain (SEQ ID NO 5) (Homo sapiens, UniProt P04275, T1381A); assay: dot blot KD determination, human vWF A1 domain; conditions: for Kd: read-out: Human vWF A1 domain KD
human vWF A1 domain (SEQ ID NO 5), sequence (P04275 with tags, fused parts or gaps T1381A): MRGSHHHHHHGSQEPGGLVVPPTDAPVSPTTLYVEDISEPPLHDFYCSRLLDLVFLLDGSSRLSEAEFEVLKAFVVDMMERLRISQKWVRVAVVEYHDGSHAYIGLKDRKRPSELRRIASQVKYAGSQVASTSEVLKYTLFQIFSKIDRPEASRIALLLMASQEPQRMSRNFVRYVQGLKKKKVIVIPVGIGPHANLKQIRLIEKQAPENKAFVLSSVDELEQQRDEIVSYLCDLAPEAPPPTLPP
Method: For KD determination, aptamers transcripts were purified on 10% denaturing polyacrylamide gels, 5′ end labeled with γ-^32P ATP.
For KD determination, aptamers were purified on denaturing polyacrylamide gels and 5′-end labeled with γ-^32P ATP. A 6 point protein titration of human vWF A1 domain (SEQ ID NO 5) was used in the dot blot assay (333 nM, 100 nM, 33 nM, 10 nM, 3 nM, 0 nM) in 1×DPBS plus 0.1 mg/mL BSA at room temperature for 30 minutes. KD values were calculated by fitting the equation y=(max/(1+K/protein))+yint using KaleidaGraph (KaleidaGraph v. 3.51, Synergy Software).
KD values were calculated by fitting the equation y=(max/(1+K/protein))+yint using KaleidaGraph (KaleidaGraph v. 3.51, Synergy Software).
All minimer sequences were transcribed, gel-purified on 15% denaturing polyacrylamide gels, 5-^32 end-labeled with γ^32P ATP, and then desalted using two Centri-Spin 10 columns (Princeton Separations Cat. #CS-101, Adelphia, N.J.). For KD determination, minimer transcripts were tested for direct binding to full length human vWF (SEQ ID NO 7), human vWF A1 domain (SEQ ID NO 5), and rabbit vWF A1 domain (SEQ ID NO 6) using an 8 point protein titration from 0-300 nM (3 fold dilutions) in 1× Dulbecco's PBS containing 0.1 mg/mL BSA (in a final volume of 50 uL) for 30 minutes at room temperature and then applied to a nitrocellulose and nylon filter sandwich in a dot blot apparatus (Schleicher and Schuell, Keene, N.H.). KD values were calculated by fitting the equation y=(max/(1+K/protein))+yint using KaleidaGraph (KaleidaGraph v. 3.51, Synergy Software).
All minimer DNA sequences were chemically synthesized, 5-^32P end-labeled with γ-^32P ATP, and then desalted using two Centri-Spin 10 columns (Princeton Separations, Cat. #CS-101, Adelphia, N.J.). […] KD values were calculated by fitting the equation y=(max/(1+K/protein))+yint using KaleidaGraph (KaleidaGraph v. 3.51, Synergy Software).

[7] = 5 nM full length human vWF, lyophilized platelets, botrocetin
[8] = DNA 1 minimers, competition dot blot, 10 nM protein
[9] = 4 nM rabbit A1 vWF, lyophilized platelets, botrocetin, read-out: Inhibition of rabbit VWF A1 domain binding in FACS assay, Average IC50
[10] = 5 nM full length human vWF, lyophilized platelets, botrocetin, read-out: Inhibition of full length hVWF binding in FACS assay, Average IC50
[11] = rRdY minimers, 8 point titration 0-300 nM
[12] = 5 nM full length human vWF, lyophilized platelets, botrocetin, units in the cell: lower bound pM, upper bound nM, read-out: Inhibition of full length hVWF binding in FACS assay, IC50 range
[13] = DNA 2 minimers, 9 point protein titration
[14] = 4 nM rabbit A1 vWF, lyophilized platelets, botrocetin, units in the cell: lower bound pM, upper bound nM, read-out: Inhibition of rabbit VWF A1 domain binding in FACS assay, IC50 range

Substance | ≦200 nM aptamer gives >90% blocking in BIPA at 6 minutes [2] | IC50 [4, 9] [pM] | IC50 [5, 10] [pM] | Kd [1, 11] [nM] | Kd [3, 11] [nM] | IC50 [5, 12] [pM] | further results
ATGAGAGTGCTGGTGGATTGCTCAGGTCTGCTGGCTGCTTACTCTCAT (DNA, backbone not given here) [ARC845] | no activity |  |  |  |  |  | Full length human vWF KD ([1]; DNA 1 minimers): No binding; Kd ([3]; DNA 1 minimers): 56 nM; Inhibition of rabbit VWF A1 domain binding in FACS assay, Average IC50 ([4]; 4 nM rabbit A1 vWF, lyophilized platelets, botrocetin): no activity; Inhibition of rabbit VWF A1 domain binding in FACS assay, IC50 range ([4]; 4 nM rabbit A1 vWF, lyophilized platelets, botrocetin, both bounds in nM): no activity; Inhibition of full length hVWF binding in FACS assay, Average IC50 [5, 7]: no activity; Inhibition of full length hVWF binding in FACS assay, IC50 range [5, 7]: no activity; Kd [6, 8]: 10 nM
CCAGCGGAATGAGAATGCTGATGGATTGCTCAGGTCTGCTGG (DNA, backbone not given here) [SEQ ID NO 204] |  |  |  |  |  |  | Rabbit vWF A1 domain KD ([3]; DNA 1 minimers): No binding; Human vWF A1 domain KD [6, 8]: No binding
GGACCACCCUCGCAACGAGAGUUGUGCCGCUGGUCC (rGrGrAfCfCrAfCfCfCfUfCrGfCrArAfCrGrArGrArGfUfUrGfUrGfCfCrGfCfUrGrGfUfCfC) [SEQ ID NO 174, minimized rRfY aptamer] | yes | 6800 | 6600 |  |  |  | 
GGAGCCACACGACATTGGCGGGCGAGAGCCACGCATGGCTCC (rGrGrArGdCdCrAdCrAdCrGrAdCrAdTdTrGrGdCrGrGrGdCrGrArGrArGdCdCrAdCrGdCrAdTrGrGdCdTdCdC) [SEQ ID NO 192] | yes | 2200 | 2600 | 2 ± 0.2 | 8 ± 1 |  | Kd [6, 11]: 4 ± 1 nM
GGAGCCACGGGGTGGGTAGACGGCGGGTATGTGGCTCC (rGrGrArGdCdCrAdCrGrGrGrGdTrGrGrGdTrArGrAdCrGrGdCrGrGrGdTrAdTrGdTrGrGdCdTdCdC) [SEQ ID NO 180] | yes | 9300 | 2000 | 1 | 14 | 731 to 3800 | Kd [6, 11]: 11 nM
GGCCACACGACATTGGCGGGCGAGAGCCACGCATGGCC (rGrGdCdCrAdCrAdCrGrAdCrAdTdTrGrGdCrGrGrGdCrGrArGrArGdCdCrAdCrGdCrAdTrGrGdCdC) [SEQ ID NO 198] |  | 12600 | 20600 | 3 ± 0.6 | 11 ± 2 |  | Kd [6, 11]: 5 ± 2 nM
GGCGTGCAGTGCC-[PEG]-GGCCGTGCGGTGCCTCCGTCACGCC-3T (DNA GGCGTGCAGTGCCGGCCGTGCGGTGCCTCCGTCACGCCT; chemistry not fully specified) [ARC1029, minimized DNA aptamer] | yes | 754 | 609 |  |  | 333 to 1100 | Kd [1, 13]: 1.4 ± 0.2 nM; inhibition of botrocetin induced platelet aggregation ([2]; in words, human PRP): inhibiting botrocetin induced platelet aggregation; Kd [3, 13]: 6.5 ± 1.5 nM; inhibition of binding of rabbit vWF A1 domain to lyophilized human platelets ([4]; in words, FACS, FIG. 7): inhibits binding; inhibition of binding of human vWF to lyophilized human platelets ([5]; in words, FACS, FIG. 7): inhibits binding
GGCGTGCAGTGCCT-[PEG]-AGGCCGTGCGG-[PEG]-CCGTCACGCC-3T (DNA GGCGTGCAGTGCCTAGGCCGTGCGGCCGTCACGCCT; chemistry not fully specified) [ARC1031, minimized DNA aptamer] |  |  |  |  |  |  | Full length human vWF KD [1, 13]: No binding; Rabbit vWF A1 domain KD [3, 13]: No binding; Inhibition of full length hVWF binding in FACS assay, IC50 range [5, 7]: no activity
GGCGTGCAGTGCCTATTCTAGGCCGTGCGG-[PEG]-CCGTCACGCC-3T (DNA GGCGTGCAGTGCCTATTCTAGGCCGTGCGGCCGTCACGCCT; chemistry not fully specified) [ARC1030, minimized DNA aptamer] |  |  |  |  |  |  | Full length human vWF KD [1, 13]: No binding; Rabbit vWF A1 domain KD [3, 13]: No binding; Inhibition of full length hVWF binding in FACS assay, IC50 range [5, 7]: no activity
GGCGTGCAGTGCCTATTCTAGGCCGTGCGGTGCCTCCGTCACGCC-3T (DNA, [invdT] at 3' end, backbone not given here) [ARC 1027, minimized DNA aptamer] | yes | 2000 | 1500 |  |  | 208 to 4200 | Kd [1, 13]: 0.8 nM; Kd [3, 13]: 4.6 nM; IC50 [4, 14]: 462 to 4200 pM
GGGACGGGGTGGGTAGACGGCGGGTATGTCCC (rGrGrGrAdCrGrGrGrGdTrGrGrGdTrArGrAdCrGrGdCrGrGrGdTrAdTrGdTdCdCdC) [SEQ ID NO 183, minimized rRdY aptamer] |  |  | 26500 | 10 ± 5 | 14 ± 7 |  | 
dGCGTGCAGTGCCT-[PEG]-AGGCCGTGCGGTGCCTCCGTCACGCC-3T (DNA GCGTGCAGTGCCTAGGCCGTGCGGTGCCTCCGTCACGCCT; chemistry not fully specified) [ARC1028, minimized DNA aptamer] | yes | 1500 | 1200 |  |  | 473 to 2700 | Kd [1, 13]: 1.1 nM; Kd [3, 13]: 3.8 nM; IC50 [4, 14]: 526 to 2700 pM
